Measured values: patent US20240285512A1, “ORAL CARE COMPOSITIONS” (Firmenich SA, priority 2021, published 2024)
Read-outs that look alike come from different tables or passages of the source.

What was measured:
Type in all cases: cell-based
[1] = system: mature biofilm of defined inocula (12 bacterial strains of Table 1); experiment: Biofilm disruption assay, defined inocula (7-day mature biofilm, SYTO 9 fluorescence); details: for inhibition at 0.01 % / inhibition at 10000 µM / inhibition at 0.1 %: read-out: Disruption Δ (difference in relative biofilm abundance between control base and treatment); for inhibition at 0.1 %: dosage 0.1%
Experimental: (§1) A total of 12 bacterial strains were selected based on scientific literature. The strains were grown in media recommended by strain suppliers. Broth cultures were adjusted to log 7 CFU/mL with growth media containing 20% of glycerol. For C. matruchotii growth medium with glycerol was used to wash off the colonies culture plates, the cell suspension was then homogenized by vortexing with glass beads. The aerobic and anaerobic strains were mixed and aliquoted separately. The inocula were stored at −80° C. until use.
(§2) Saliva and oral inocula preparation. Saliva and oral microflora samples were collected from healthy volunteers by passive drooling using a method described previously. • (a) Bacteria Adhesion assay. Pegs of 96-well MBEC plate (Innovotech, Canada) were submerged in saliva for pellicle formation. Overnight culture of A. oris, A. naeslundii, S. mitis and S. oralis were normalized to OD=0.1 using 0.85% NaCl and mixed in equal proportions. The plates were treated with samples for 2 min and incubated with the culture mixture for 30 min at 37° C. and 5% CO2. The pegs on 96-well plates were then washed 3 times before harvest. • (b) Biofilm formation assay. Saliva-coated 96-well MBEC plates were incubated with inocula anaerobically overnight. The next day, the inoculum was replaced with modified BHI broth (BHI supplemented with 1 g/L mucin, 0.5 mg/L Vitamin K and 10 mg/L hemin). The devices were treated for 2 min twice to mimic the application of dental care products, after which the treatment solution was replaced with fresh modified BHI broth and incubation of the devices was continued. The biofilms were harvested after two days. • (c) Biofilm disruption assay. The inoculation and incubation was done in the same manner as described in the formation assay except that the incubation time was extended to 7 days, after which the mature biofilm was subjected to treatment twice a day as in the formation assay for 3 days before harvest.
(§3) Biofilm harvest. To harvest the attached cells, the peg of the MBEC device was immersed in 200 μL of saline solution per well. The plates were sonicated in an ultrasonic bath to obtain cell suspension. For the adhesion assay, the suspension was serially diluted and plated on Tryptic Soy Agar using Microlab STAR (Hamilton). For the formation and disruption assays, the suspension was used for SYTO 9 staining using LIVE/DEAD® BacLight Bacterial Viability Kits L7012 (Thermo Fisher Scientific) following manufacturer instructions.
(§4) The inventors used the assays described above to screen more ingredients for activity in a model mouth wash (Table 5).
(§5) The compounds and compositions for testing activities in Table 6 were dissolved in DMSO. The rest of the ingredients of mouth rinse in Table 5 were mixed to make a master mix in water and then aliquoted. The DMSO solution was then added to the master mix and homogenized.

[2] = system: biofilm of defined inocula (12 bacterial strains of Table 1); experiment: Biofilm formation assay, defined inocula (MBEC plates, SYTO 9 fluorescence); details: for inhibition at 0.01 % / inhibition at 10000 µM / inhibition at 0.1 %: read-out: Formation Δ (difference in relative biofilm abundance between control base and treatment); for inhibition at 0.1 %: dosage 0.1%
Experimental: as §1, §2, §3, §4, §5

[3] = system: A. oris, A. naeslundii, S. mitis and S. oralis; experiment: Bacteria adhesion assay, defined inocula (MBEC pegs, saliva pellicle, CFU plating); details: for inhibition at 0.01 % / inhibition at 10000 µM / inhibition at 0.1 %: relative CFU with base designated as 100, read-out: Adhesion Δ (difference in relative biofilm abundance between control base and treatment); for Adhesion Δ (difference in relative biofilm abundance between control base and treatment): relative CFU with base designated as 100
Experimental: as §1, §2, §3, §4, §5

[4] = dosage 0.01%, defined inocula, relative fluorescence intensity with base designated as 100
[5] = dosage 10 mM in model mouth rinse with DMSO, defined inocula, relative fluorescence intensity with base designated as 100
[6] = dosage 10 mM in model mouth rinse with DMSO
[7] = defined inocula, relative fluorescence intensity with base designated as 100

## CCC=CCCOC(C)=O [3-HEXENYL ACETATE, 3-hexenyl acetate]
[1]; [4]
  inhibition at 0.01 %: 64.7%
[2]; [4]
  inhibition at 0.01 %: 78.1%
[3]; dosage 0.01%
  inhibition at 0.01 %: 32.7%

## CC=Cc1ccc(OC)cc1 [Anethole]
[1]; [5]
  inhibition at 10000 µM: 77.4%
[2]; [5]
  inhibition at 10000 µM: 53.4%
[3]; [6]
  inhibition at 10000 µM: 17.4%

## CC(=O)/C=C/C1=C(C)CCCC1(C)C [BETA IONONE, (3E)-4-(2,6,6-Trimethylcyclohex-1-en-1-yl)but-3-en-2-one]
[1]; [4]
  inhibition at 0.01 %: 61.8%
[2]; [4]
  inhibition at 0.01 %: 80.8%
[3]; dosage 0.01%
  inhibition at 0.01 %: 19.4%

## O=CC=Cc1ccccc1 [Cinnamaldehyde]
[1]; [7]
  inhibition at 0.1 %: 48.2%
[2]; [7]
  inhibition at 0.1 %: 83.3%
[3]; dosage 0.1%
  inhibition at 0.1 %: -9.1%

## CC(C)=CCCC(C)CCO (centres unmarked) [Citronellol]
[1]; [5]
  inhibition at 10000 µM: 67%
[2]; [5]
  inhibition at 10000 µM: 58.1%
[3]; [6]
  inhibition at 10000 µM: 91.7%

## CCCCCCCCCC(=O)O [Decanoic acid]
[1]; [5]
  inhibition at 10000 µM: 89.8%
[2]; [5]
  inhibition at 10000 µM: 93.3%

## CC(C)=CCC/C(C)=C/CO [GERANIOL, Geraniol]
[1]; [4]
  inhibition at 0.01 %: 61.7%
[2]; [4]
  inhibition at 0.01 %: 84.7%
[3]; dosage 0.01%
  inhibition at 0.01 %: 32.1%

## CC(C)CCO [ISOAMYL ALCOHOL, Isoamyl alcohol]
[1]; [7]
  inhibition at 0.1 %: 57.4%
[2]; [7]
  inhibition at 0.1 %: 82.3%
[3]; dosage 0.1%
  inhibition at 0.1 %: 63.7%

## CCCCCC1C(=O)CCC1CC(=O)OC (centres unmarked) [Methyl (2-pentyl-3-oxocyclopentyl) acetate]
[1]; [4]
  Disruption Δ (difference in relative biofilm abundance between control base and treatment): 63.2
[2]; [4]
  Formation Δ (difference in relative biofilm abundance between control base and treatment): 86.3
[3]; dosage 0.01%
  Adhesion Δ (difference in relative biofilm abundance between control base and treatment): 37.1

## CCCCCCCCCCCCCC(=O)O [Myristic Acid, Myristic acid]
[1]; [5]
  inhibition at 10000 µM: 87.9%
[2]; [5]
  inhibition at 10000 µM: 64.9%
[3]; [6]
  inhibition at 10000 µM: 33.3%

## C=C(C)[C@@H]1CCC2=CC(=O)C[C@@H](C)[C@]2(C)C1 [Nootkatone]
[1]; [5]
  inhibition at 10000 µM: 63.1%
[2]; [5]
  inhibition at 10000 µM: 20.3%
[3]; [6]
  inhibition at 10000 µM: 86.4%

## CCCCC1CCC(=O)O1 (centres unmarked) [OCTALACTONE, Gamma octalactone]
[1]; [4]
  Disruption Δ (difference in relative biofilm abundance between control base and treatment): 74.1
[2]; [4]
  Formation Δ (difference in relative biofilm abundance between control base and treatment): 89.1
[3]; dosage 0.01%
  Adhesion Δ (difference in relative biofilm abundance between control base and treatment): 63.5

## Cc1ccc(C(C)C)c(O)c1 [THYMOL, Thymol]
[1]; [7]
  inhibition at 0.1 %: 72%
[2]; [7]
  inhibition at 0.1 %: 86.7%
[3]; dosage 0.1%
  inhibition at 0.1 %: 5.7%

## CC/C=C\CCOC(=O)CCCCC [cis-3-hexenylhexanoate]
[1]; [5]
  Disruption Δ (difference in relative biofilm abundance between control base and treatment): 75.3
[2]; [5]
  Formation Δ (difference in relative biofilm abundance between control base and treatment): 58.1
[3]; [6]
  Adhesion Δ (difference in relative biofilm abundance between control base and treatment): 9.1

## CCCCCCCCCCC(=O)O [undecanoic acid, Undecanoic acid]
[1]; [5]
  inhibition at 10000 µM: 89.1%
[2]; [5]
  inhibition at 10000 µM: 87.5%
[3]; [6]
  inhibition at 10000 µM: 98.8%

## Butanol
[1]
  Disruption Δ (difference in relative biofilm abundance between control base and treatment): 59.5
[2]
  Formation Δ (difference in relative biofilm abundance between control base and treatment): 83.5
[3]; dosage 0.1%
  Adhesion Δ (difference in relative biofilm abundance between control base and treatment): 56.8
